Measurements reported in ChEMBL document CHEMBL1201862, “PubChem BioAssay data set” (2004).
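1) Cells in 96-well plates. 2) Compound, 48 h, 5 concentrations. 3) Linear interpolation between surrounding doses. 4) Unreached endpoint = highest concentration. At the GI50, growth is halved.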 The source made the active and inactive calls. No stated cut-off is given here; in the data, active = GI50 up to about 1.1 µM and inactive = higher.

Assays:
Experiment in all cases: NCI anticancer screen, dose series, 48 h
786-0 = test system: 786-0
A498 = test system: A498
A549 = test system: A549
ACHN = test system: ACHN
BT-549 = test system: BT-549
CAKI-1 = test system: CAKI-1
CCRF-CEM = test system: CCRF-CEM
COLO 205 = test system: COLO 205
DU-145 = test system: DU-145
EKVX = test system: EKVX
HCC 2998 = test system: HCC 2998
HCT-116 = test system: HCT-116
HCT-15 = test system: HCT-15
HL-60 = test system: HL-60
HOP-62 = test system: HOP-62
HOP-92 = test system: HOP-92
HT-29 = test system: HT-29
IGROV-1 = test system: IGROV-1
K562 = test system: K562
KM12 = test system: KM12
LOX IMVI = test system: LOX IMVI
M14 = test system: M14
MCF7 = test system: MCF7
MDA-MB-231 = test system: MDA-MB-231
MDA-MB-435 = test system: MDA-MB-435
MDA-N = test system: MDA-N
MOLT-4 = test system: MOLT-4
Malme-3M = test system: Malme-3M
NCI-H226 = test system: NCI-H226
NCI-H23 = test system: NCI-H23
NCI-H460 = test system: NCI-H460
NCI-H522 = test system: NCI-H522
NCI/ADR-RES = test system: NCI/ADR-RES
OVCAR-3 = test system: OVCAR-3
OVCAR-4 = test system: OVCAR-4
OVCAR-5 = test system: OVCAR-5
OVCAR-8 = test system: OVCAR-8
PC-3 = test system: PC-3
RPMI-8226 = test system: RPMI-8226
RXF 393 = test system: RXF 393
SF-268 = test system: SF-268
SF-295 = test system: SF-295
SF-539 = test system: SF-539
SK-MEL-28 = test system: SK-MEL-28
SK-MEL-2 = test system: SK-MEL-2
SK-MEL-5 = test system: SK-MEL-5
SK-OV-3 = test system: SK-OV-3
SN12C = test system: SN12C
SNB-19 = test system: SNB-19
SNB-75 = test system: SNB-75
SW-620 = test system: SW-620
T47D = test system: T47D
TK-10 = test system: TK-10
U-251 = test system: U-251
UACC-257 = test system: UACC-257
UACC-62 = test system: UACC-62
UO-31 = test system: UO-31

For `COc1cc(/C=c2/c3ccccc3n3c2cc(-c2ccccc2)[n+]3C)cc(OC)c1OC`, the GI50 (786-0) was 4.06 µM (inactive), the GI50 (A498) was 16 µM (inactive) and the GI50 (A549) was 4.18 µM (inactive). For the same compound, the GI50 (ACHN) was 4.07 µM (inactive), the GI50 (BT-549) was 3.78 µM (inactive) and the GI50 (CAKI-1) was 3.92 µM (inactive). The GI50 (CCRF-CEM) was 3.52 µM (inactive), the GI50 (COLO 205) was 1.69 µM (inactive) and the GI50 (DU-145) was 5.47 µM (inactive). For the same compound, the GI50 (EKVX) was 5.15 µM (inactive), the GI50 (HCC 2998) was 6.22 µM (inactive) and the GI50 (HCT-116) was 2.62 µM (inactive). For the same compound, the GI50 (HCT-15) was 4.39 µM, the GI50 (HL-60) was 2.39 µM (inactive) and the GI50 (HOP-62) was 5.47 µM (inactive). The GI50 (HOP-92) was 3.48 µM (inactive), the GI50 (HT-29) was 3.07 µM (inactive) and the GI50 (IGROV-1) was 6.19 µM (inactive). For the same compound, the GI50 (K562) was 2.74 µM (inactive), the GI50 (KM12) was 1.91 µM (inactive) and the GI50 (LOX IMVI) was 3.69 µM (inactive). For the same compound, the GI50 (M14) was 4.95 µM (inactive), the GI50 (MCF7) was 4.54 µM (inactive) and the GI50 (MDA-MB-231) was 4.06 µM (inactive). For the same compound, the GI50 (MDA-MB-435) was 2.51 µM (inactive), the GI50 (MDA-N) was 4.04 µM (inactive) and the GI50 (MOLT-4) was 2.97 µM (inactive). For the same compound, the GI50 (Malme-3M) was 2.19 µM (inactive), the GI50 (NCI-H226) was 7.94 µM (inactive) and the GI50 (NCI-H23) was 3.94 µM (inactive). For the same compound, the GI50 (NCI-H460) was 4.58 µM (inactive), the GI50 (NCI-H522) was 2.93 µM (inactive) and the GI50 (NCI/ADR-RES) was > 100 µM (inactive). For the same compound, the GI50 (OVCAR-3) was 2.43 µM (inactive), the GI50 (OVCAR-4) was 3.46 µM (inactive) and the GI50 (OVCAR-5) was 4.85 µM (inactive). The GI50 (OVCAR-8) was 3.33 µM (inactive), the GI50 (PC-3) was 3.74 µM (inactive) and the GI50 (RPMI-8226) was 2.55 µM (inactive). The GI50 (RXF 393) was 2.74 µM (inactive), the GI50 (SF-268) was 6.73 µM (inactive) and the GI50 (SF-295) was 5.64 µM (inactive). For the same compound, the GI50 (SF-539) was 2.86 µM (inactive), the GI50 (SK-MEL-28) was 5.78 µM (inactive) and the GI50 (SK-MEL-2) was 2.58 µM (inactive). The GI50 (SK-MEL-5) was 2.69 µM (inactive), the GI50 (SK-OV-3) was 5.92 µM (inactive) and the GI50 (SN12C) was 2.82 µM (inactive). The GI50 (SNB-19) was 5.48 µM (inactive), the GI50 (SNB-75) was 4.01 µM (inactive) and the GI50 (SW-620) was 3.82 µM (inactive). For the same compound, the GI50 (T47D) was 4.06 µM (inactive), the GI50 (TK-10) was 5.33 µM (inactive) and the GI50 (U-251) was 3.7 µM (inactive). The GI50 (UACC-257) was 2.44 µM (inactive), the GI50 (UACC-62) was 3.69 µM (inactive) and the GI50 (UO-31) was 5.12 µM (inactive).
